One assay relates to Aspergillus fumigatus. Kind of assay: Antifungal activity against Aspergillus fumigatus relative to fluconazole. The class given is functional.
The test system of a further assay is Candida albicans. Description: Antifungal activity against Candida albicans relative to fluconazole. The format is functional.

With `CCCCCCCCCC1C=C(CCC2C(OC)OC3COC(c4ccccc4)OC3C2CCC2CN(CCCCCCCCC)N=N2)N=N1` (configuration not stated), the “fold change (FC)” value with Aspergillus fumigatus and in the assay with Candida albicans was 14 throughout.

The values are drawn from ChEMBL document CHEMBL2169787, “The biology and chemistry of antifungal agents: a review” (2012).
